Measured values as given in patent US9540389B2, “Antimicrobial potentiators” (priority 2013, dated 2017).
Values after ≈ are worked out from the molar mass of the structure shown.

Experiments:
P. aeruginosa ATCC 27853 = test: MIC assay (microbroth dilution) ± 25 μM EPI; format: cell-based, Pseudomonas aeruginosa
Text: (§1) • Strains and Reagents. The following strains were obtained from the Keio collection (Baba, et al.: Construction of Escherichia coli K-12 in-frame, single-gene knockout mutants: the Keio collection. In Mol Syst Biol, vol. 2, pp. 2006 0008, (2006)): JW0451 (ΔacrB::kan), JW5503 (ΔtolC::kan), JW3234 (ΔacrF::kan), JW2661 (ΔemrB::kan), JW0863 (ΔmacB::kan). The deletion mutations in each of these strains were transferred to AB1157 using P1 phage transduction (see Table 1). The construction of the E. coli cell-based reporter strain (SOS-XXX) that was used for high throughput screening is described in detail in the supplementary information. […] Irgasan was a generous gift from Ciba Speciality Chemicals, Inc. (High Point, N.C.). Hoechst 33342 (H33342) was purchased from Molecular Probes (Eugene, Oreg.). […] Luria Broth (Miller) and agar were purchased as prepared dehydrated media from Becton Dickenson (Franklin Lakes, N.J.). The compound libraries used in high-throughput screens were purchased from Chembridge (San Diego, Calif.), ChemDiv (San Diego, Calif.), and TimTec (Newark, Del.). MBX2319 was synthesized by Microbiotix, Inc. • Antibacterial Activity Assays. The minimal inhibitory concentration (MIC) of antibacterial agents and biocides were determined using the microbroth dilution method essentially as described in the CLSI protocol M7-A7 (CLSI: Method for dilution antimicrobial susceptibility testing for bacteria that grow aerobically; Approved standard-document M7-A7. In Clinical and Laboratory Standards Institute document M7-A7, Clinical and Laboratory Standards Institute, Wayne, Pa., (2006)), with the following exceptions. LB media was used instead of MHB. […] The final concentration of DMSO in each assay was 2%. […] MIC assays were performed in triplicate and the geometric mean was calculated. Checkerboard MIC assays using an EPI and an antibacterial agent were performed essentially as described (Pillai, et al.: Antimicrobial Combinations. In Antibiotics in Laboratory Medicine, ed. by V. Lorian, pp. 365-440, Lippincott Williams & Wilkins, Philadelphia, Pa., (2005)), with the same modifications used for the MIC assays described above. • Time-Kill Assays. Killing curve assays were performed essentially as described (Pillai, et al.: Antimicrobial Combinations. In Antibiotics in Laboratory Medicine, ed. by V. Lorian, pp. 365-440, Lippincott Williams & Wilkins, Philadelphia, Pa., (2005)). Exponential bacterial cultures grown in LB were diluted to a cell density of ˜1×10^7 in LB followed by addition of CIP and/or an EPI. Viability was monitored over 2-4 hours by making serial dilutions in saline and spotting 5 μl of each dilution onto the surface of an LB agar plate in triplicate. Colonies were counted after the plates were incubated at 37° C. for 16-18 hr, colony forming units (CFU) per ml were calculated, and the average and standard deviation for the three replicates was determined. For treatments that decreased CFU/ml below the limit of detection for the spot plating method, the 100 μl samples were diluted into 5 ml LB top agar, were poured onto LB agar plates, and incubated for 18 hr at 37° C. To calculate the fraction of the control for each sample, the average CFU/ml values for treated samples were divided by those from the same sample at 0 h (time=0). Each experiment was repeated at least three times, and a representative experiment is shown. • H33342 Accumulation Assay. The rate of accumulation of the fluorescent dye Hoechst 33342 (H33342), which is a substrate of a wide variety of bacterial efflux pumps (van den Berg van Saparoea, et al., Biochemistry, vol. 44, pp. 16931-16938, (2005)), can be used to estimate the activity of the major efflux pumps in E. coli and many other bacterial species. The H33342 accumulation assay was used to evaluate the effect of EPIs on the activity of the AcrAB-TolC efflux pump in several bacterial species essentially as described (Coldham, et al., J Antimicrob Chemother, vol. 65, pp. 1655-1663, (2010)). […]

[1] = test system: Shigella flexneri ATCC 12022; test: MIC assay (microbroth dilution) ± 25 μM EPI; format: cell-based
Text: as §1

[2] = test system: Klebsiella pneumoniae ATCC 700603; test: MIC assay (microbroth dilution) ± 25 μM EPI; format: cell-based
Text: as §1

[3] = test system: Escherichia coli ATCC 25922; test: MIC assay (microbroth dilution) ± 25 μM EPI; format: cell-based; conditions: E. coli ATCC 25922
Text: as §1

[4] = test system: Salmonella enterica ATCC 14028; test: MIC assay (microbroth dilution) ± 25 μM EPI; format: cell-based
Text: as §1

Escherichia coli 331 = test: MIC assay (microbroth dilution) ± 25 μM EPI; format: cell-based; conditions: E. coli 331
Text: as §1

Escherichia coli AB1157 [5] = test: MIC assay (microbroth dilution) ± 25 μM EPI; format: cell-based; conditions: E. coli AB1157 (WT); + 25 μM MBX2319; geometric mean
Text: as §1

[6] = test system: Enterobacter aerogenes ATCC 13048; test: MIC assay (microbroth dilution) ± 25 μM EPI; format: cell-based
Text: as §1

Escherichia coli AB1157 [7] = test: microbe, parasite or virus in culture
[8] = test system: Escherichia coli AB1157 ΔtolC; test: Checkerboard MIC assay (antibacterial agent + MBX2319); format: cell-based
Text: as §1

[9] = test system: Escherichia coli AB1157 ΔacrF; test: as above; format: cell-based
Text: as §1

[10] = test system: Escherichia coli AB1157 (WT); test: as above; format: cell-based; conditions: WT
Text: as §1

[11] = test system: Escherichia coli AB1157 ΔacrB; test: as above; format: cell-based
Text: as §1

[12] = Escherichia coli, read-out: MIC (μg/ml) with MBX2319 at concn (μM) of: 0

C[C@H]1COc2c(N3CCN(C)CC3)c(F)cc3c(=O)c(C(=O)O)cn1c23 [Levofloxacin]
MIC (μg/ml) ± EPI: MBX2319 (P. aeruginosa ATCC 27853; + 25 μM MBX2319): 1 µg/mL
MIC (μg/ml) ± EPI: PAβN (P. aeruginosa ATCC 27853; + 25 μM PAβN): 0.5 µg/mL
MIC (P. aeruginosa ATCC 27853; Pseudomonas aeruginosa, ATCC27853, no EPI, read-out: MIC (μg/ml) ± EPI: None): 1 µg/mL
MIC (μg/ml) ± EPI: MBX2319 ([1]; Shigella flexneri ATCC 12022, + 25 μM MBX2319): 0.016 µg/mL
MIC (μg/ml) ± EPI: PAβN ([1]; Shigella flexneri ATCC 12022, + 25 μM PAβN): 0.031 µg/mL
MIC ([1]; Shigella flexneri, ATCC12022, read-out: MIC (μg/ml) ± EPI: None): 0.063 µg/mL
MIC (μg/ml) ± EPI: MBX2319 ([2]; + 25 μM MBX2319): 0.149 µg/mL
MIC (μg/ml) ± EPI: PAβN ([2]; + 25 μM PAβN): 0.5 µg/mL
MIC ([2]; ATCC700603, no EPI, read-out: MIC (μg/ml) ± EPI: None): 0.71 µg/mL
MIC (μg/ml) ± EPI: MBX2319 ([3]; + 25 μM MBX2319): 0.013 µg/mL
MIC (μg/ml) ± EPI: PAβN ([3]; + 25 μM PAβN): 0.022 µg/mL
MIC (μg/ml) ± EPI: MBX2319 ([4]; + 25 μM MBX2319): 0.016 µg/mL
MIC (μg/ml) ± EPI: PAβN ([4]; + 25 μM PAβN): 0.044 µg/mL
MIC ([4]; ATCC14028, no EPI, read-out: MIC (μg/ml) ± EPI: None): 0.062 µg/mL
MIC (μg/ml) ± EPI: MBX2319 (Escherichia coli 331; + 25 μM MBX2319): 11.3 µg/mL
MIC (μg/ml) ± EPI: PAβN (Escherichia coli 331; + 25 μM PAβN): 32 µg/mL
MIC (Escherichia coli 331; Escherichia coli, no EPI, read-out: MIC (μg/ml) ± EPI: None): 64 µg/mL
MICs (μg/ml) ± EPIs: MBX2319 (Escherichia coli AB1157 [5]): 0.016 µg/mL
MIC (μg/ml) ± EPI: MBX2319 ([6]; + 25 μM MBX2319): 0.044 µg/mL
MIC (μg/ml) ± EPI: PAβN ([6]; + 25 μM PAβN): 0.063 µg/mL
MIC ([6]; Klebsiella aerogenes, ATCC13048, no EPI, read-out: MIC (μg/ml) ± EPI: None): 0.177 µg/mL
MIC (Escherichia coli AB1157 [7]): 0.06 µg/mL (≈ 0.166 µM)
MIC [8, 12]: 0.016 µg/mL
MIC (μg/ml) with MBX2319 at concn (μM) of: 1.56 ([8]; ΔtolC, MBX2319 1.56 μM): 0.016 µg/mL
MIC (μg/ml) with MBX2319 at concn (μM) of: 3.13 ([8]; ΔtolC, MBX2319 3.13 μM): 0.016 µg/mL
MIC [9, 12]: 0.063 µg/mL
MIC (μg/ml) with MBX2319 at concn (μM) of: 6.25 ([9]; ΔacrF, MBX2319 6.25 μM): 0.016 µg/mL
MIC (μg/ml) with MBX2319 at concn (μM) of: 25 ([9]; ΔacrF, MBX2319 25 μM): 0.016 µg/mL
MIC (μg/ml) with MBX2319 at concn (μM) of: 50 ([9]; ΔacrF, MBX2319 50 μM): 0.016 µg/mL
MIC (μg/ml) with MBX2319 at concn (μM) of: 12.5 ([9]; ΔacrF, MBX2319 […]): 0.016 µg/mL
MIC (μg/ml) with MBX2319 at concn (μM) of: 3.13 ([10]; MBX2319 3.13 μM): 0.016 µg/mL
MIC (μg/ml) with MBX2319 at concn (μM) of: 6.25 ([10]; MBX2319 6.25 μM): 0.016 µg/mL
MIC (μg/ml) with MBX2319 at concn (μM) of: 25 ([10]; MBX2319 25 μM): 0.016 µg/mL
MIC (μg/ml) with MBX2319 at concn (μM) of: 50 ([10]; MBX2319 50 μM): 0.016 µg/mL
MIC (μg/ml) with MBX2319 at concn (μM) of: 12.5 ([10]; MBX2319 […]): 0.016 µg/mL
MIC [11, 12]: 0.016 µg/mL
MIC (μg/ml) with MBX2319 at concn (μM) of: 1.56 ([11]; ΔacrB, MBX2319 1.56 μM): 0.016 µg/mL
MIC (μg/ml) with MBX2319 at concn (μM) of: 3.13 ([11]; ΔacrB, MBX2319 3.13 μM): 0.016 µg/mL
MIC (μg/ml) with MBX2319 at concn (μM) of: 6.25 ([11]; ΔacrB, MBX2319 6.25 μM): 0.016 µg/mL
MIC (μg/ml) with MBX2319 at concn (μM) of: 25 ([11]; ΔacrB, MBX2319 25 μM): 0.016 µg/mL
MIC (μg/ml) with MBX2319 at concn (μM) of: 50 ([11]; ΔacrB, MBX2319 50 μM): 0.016 µg/mL
MIC (μg/ml) with MBX2319 at concn (μM) of: 12.5 ([11]; ΔacrB, MBX2319 […]): 0.016 µg/mL
